According to patent US7449301B2, “Pharmaceutical composition and method for activating macrophage using the same” (National University Corporation Gunma University, priority 2004, dated 2008):

Tests used:
Format in all cases: cell-based, mouse
[1] = test system: peritoneal macrophages (PEMs); experiment: Phagocytosis assay of PEMs with RBCs (phagocytosis index); details: PEMs preincubated 30 min with ML-7 10 μM or BDM 50 mM; IgG-opsonized RBCs 5 min; FIG. 3
PEMs = experiment: Immunocytofluorescence of PEMs (morphology, F-actin, activated MAPK); details: PEMs treated with mAb80 in presence of inhibitor; FIG. 4B
Experimental: PEMs treated with rat IgG, mAb80 or mAb84 were fixed for 20 to 30 min at room temperature in PBS containing 4% paraformaldehyde and 0.1% glutaraldehyde, and were then permeabilized for 60 min at room temperature in PBS containing 0.1% Triton X-100 and 5% goat serum (blocking solution). After incubation for 1 h at room temperature or overnight at 4° C. with primary antibody (anti-activated MAPK antibody) diluted in blocking solution, the cells were washed with PBS and incubated for 1 h at room temperature with Alexa488-conjugated secondary antibodies (Molecular Probes) diluted in blocking solution. For visualization of F-actin, cells were incubated with rhodamine-conjugated phalloidin (Molecular Probes) together with the secondary antibodies. The cells were finally washed with PBS and mounted. Fluorescence images were acquired with a laser-scanning confocal microscope (LSM5 PASCAL, Zeiss) (FIG. 4).

MAPK = experiment: Immunoblot of activated (phosphorylated) MAPK in PEMs; details: 50 μM PD98059 or 2 μM U0126, FIG. 2B, C bottom
Experimental: PEMs were treated with anti-SIRPβ antibody or control IgG, and a secondary antibody, and incubated at 37° C. for 10 min. As a positive control, PEMs were incubated at 37° C. for 10 min in the presence of M-CSF (macrophage colony stimulating factor) (10 ng/ml). As a negative control, non-treated PEMs were used. Then, cells were lysed and subjected to immunoblot analysis using an anti-MAPK antibody (αMAPK), anti-activated (phosphorylated) MAPK antibody (αpMAPK), anti-MEK antibody (αMEK) or anti-activated MEK antibody (αpMEK) (FIG. 2A).
Then, the MEK inhibitors, PD98059 and U0126 were used to examine the role of MAPK-MEK pathway in the macrophage activation by an anti-SIRPβ antibody. PEMs were incubated in the presence or absence of 50 μM PD98059 or 2 μM U0126 at 37° C. for 30 min, and then treated with an anti-SIRPβ antibody or control IgG, and a secondary antibody. After incubation with IgG-opsonized RBCs at 37° C. for 5 min, cells were fixed and phagocytosis index was calculated (FIG. 2B, C; upper figures). On the other hand, PEMs were treated with an anti-SIRPβ antibody or control IgG, and a secondary antibody in the presence or absence of the inhibitors, followed by an analysis using an anti-MAPK antibody (αMAPK) and an anti-activated (phosphorylated) MAPK antibody (αpMAPK) (FIG. 2B, C; bottom figures). […]

| Compound | effect of inhibitor on anti-SIRPβ antibody activation of macrophage-mediated phagocytosis [1] | effect of inhibitor on morphological change of PEMs induced by anti-SIRPβ antibody (PEMs) | activation of MAPK by mAb80 and mAb84 in the presence of MEK inhibitor (MAPK) |
| --- | --- | --- | --- |
| CC(=O)C(C)=NO [BDM, 2,3-butanedione 2-monoxime] | attenuated the activation of macrophages-mediated phagocytosis | – | – |
| O=S(=O)(c1cccc2c(I)cccc12)N1CCCNCC1 [ML-7] | attenuated the activation of macrophages-mediated phagocytosis | markedly inhibited | – |
| COc1cccc(-c2cc(=O)c3ccccc3o2)c1N [PD98059] | – | markedly inhibited | did not occur |
| N#CC(=C(/N)Sc1ccccc1N)/C(C#N)=C(\N)Sc1ccccc1N [U0126] | – | – | did not occur |
